Assay [1] relates to UREX sensor circuit (mUTS, hucO8). Description: Uric acid response of UREX-controlled SEAP expression in cultured human cells. Type of assay: cell-based. Particulars: 5 mM uric acid added to cultures transfected with pCK9 and pCK25, 48 h. The procedure:
(d) Functional validation of the UREX sensor circuit. 4×10^4 HeLa cells were co-transfected with the UREX expression vectors pCK9 and pCK25 (see FIG. 1a) and cultivated for 48 h in the presence or absence of 5 mM uric acid before SEAP was quantified in the cell culture supernatant.
(e-g) Urate-dependent dose-response characteristics of UREX in the presence and absence of the human urate transporter URAT1. 3×10^5 HeLa (e), HEK-293 (f) or HT-1080 cells (g) were co-transfected with the UREX sensor plasmids pCK9 and pCK25 (see FIG. 1a) and either pURAT1 (PhCMV-URAT1-pA) or the isogenic control vector pcDNA3.1. The transfected populations were cultivated in medium supplemented with different uric acid concentrations and resulting SEAP levels were profiled after 48 h.
(b) Urate-based dose-response profile of the triple-transgenic HEK-293UREX15 cell line stably engineered for UREX-controlled SEAP and constitutive URAT1 expression. 5×10^4 HEK-293UREX15 were cultivated in the presence of different urate concentrations and SEAP levels were quantified in the culture supernatant after 72 h.
(c) Reversibility of the UREX-based uric acid sensor circuit. 2×10^5 HEK-293UREX15 cells were cultivated for 10 days while alternating uric acid concentrations from 0 to 5 mM every 72 h (arrows). […]

The subject of another assay is uric acid. Description: Urate reduction in culture medium by mUox/smUox-expressing HeLaURAT1 cells. Type of assay: cell-based, human. The conditions noted are these: HeLaURAT1, 0.5 mM uric acid, 72 h, constitutive or mUTS-controlled expression. How it is done: (a) Profiling of urate reduction mediated by constitutive or UREX-controlled expression of an intracellular (mUox) or secretion-engineered (smUox) urate oxidase variant. 2×10^5 HeLaURAT1 cells were co-transfected with either (i) pCK65 (PUREX8-smUox-pA) and isogenic control vector pcDNA3.1, (ii) pCK65 (PUREX8-smUox-pA) and pCK25 (PhEF1α-mUTS-pA), (iii) pCK67 (PUREX8-mUox-pA) and pcDNA3.1 or (iv) pCK67 (PUREX8-mUox-pA) and pCK25 (PhEF1α-mUTS-pA). The cells were cultivated for 72 h with 0.5 mM uric acid before urate levels were determined in the culture supernatant.
(b) Urate degradation profiles UREX-controlled smUox expression. […]
SEAP levels are quantified in cell culture supernatants and mouse serum using a standard p-nitrophenylphosphate-based light absorbance time course (Berger, J., Hauber, J., Hauber, R., Geiger, R. & Cullen, B. R., Gene 66, 1-10 (1988)). Uric acid levels are assessed in cell culture supernatants, murine serum or urine using the Amplex® Red uric acid/uricase assay kit (Invitrogen, Basel, Switzerland, Cat. No. A22181) according to the manufacturer's protocol. […] The addition of uricase triggers the enzymatic conversion of uric acid to allantoin, CO2 and H2O2 that reacts, in the presence of horseradish peroxidase stoichiometrically with Amplex Red reagent to generate the red-fluorescent oxidation product resorufin which can be quantified at 585 nm.

In the case of `O=c1[nH]c(=O)c2[nH]c(=O)[nH]c2[nH]1` [uric acid, 7,9-dihydro-3H-purine-2,6,8-trione], the “effect on SEAP expression” value in assay [1] is on record as “derepresses SEAP expression”.

B1: mUox: intracellular variant of the urate oxidase from Aspergillus flavus codon-optimized for expression in mammalian cells (protein, UniProt Q00511 2-302, looked up)
Uricase: SAVKAARYGKDNVRVYKVHKDEKTGVQTVYEMTVCVLLEGEIETSYTKADNSVIVATDSIKNTIYITAKQNPVTPPELFGSILGTHFIEKYNHIHAAHVNIVCHRWTRMDIDGKPHPHSFIRDSEEKRNVQVDVVEGKGIDIKSSLSGLTVLKSTNSQFWGFLRDEYTTLKETWDRILSTDVDATWQWKNFSGLQEVRSHVPKFDATWATAREVTLKTFAEDNSASVQATMYKMAEQILARQQLIETVEYSLPNKHYFEIDLSWHKGLQNTGKNAEVFAPQSDPNGLIKCTVGRSSLKSKL
modifications: codon-optimized for mammalian expression
notes: intracellular variant of the urate oxidase from Aspergillus flavus codon-optimized for expression in mammalian cells
Turning to B1, the “reduction of uric acid in the culture medium” value with uric acid is given as “reduces uric acid”.
